Patent US11382956B2, “Amylin analogues” (Zealand Pharma A/S, priority 2016, dated 2022)
Numbered stars: 1 amine (or outer) side, 2 acyl side, 3 side chain; on linkers, the order of the positions; unused ones are H or OH. Bridge positions count the residues as written; N and C are the ends. Square brackets hold non-standard residues; d marks the D form. Peptide text beside a SMILES is read from it. * marks the point of attachment. C20 diacid = O=C(O)CCCCCCCCCCCCCCCCCCC(=O)*; γGlu = O=C(O)[C@H](CCC(=O)[*:2])N[*:1]; Hyp = O=C(O)[C@@H]1C[C@@H](O)CN1; NMeI = CC[C@H](C)[C@H](NC)C(=O)O; Sar = CNCC(=O)O

Tests used:
[1] = target: T1, recombinant human amylin 3 receptor (hAMYR3) (Homo sapiens, UniProt O60896+P30988); assay: hAMYR3 cAMP assay (AlphaScreen) in 1321N1 cells; assay type: cell-based; details: cAMP formation, 45 min stimulation
T1 construct: host or cells: human astrocytoma cell line 1321N1
T1 sequence (P30988 25-474): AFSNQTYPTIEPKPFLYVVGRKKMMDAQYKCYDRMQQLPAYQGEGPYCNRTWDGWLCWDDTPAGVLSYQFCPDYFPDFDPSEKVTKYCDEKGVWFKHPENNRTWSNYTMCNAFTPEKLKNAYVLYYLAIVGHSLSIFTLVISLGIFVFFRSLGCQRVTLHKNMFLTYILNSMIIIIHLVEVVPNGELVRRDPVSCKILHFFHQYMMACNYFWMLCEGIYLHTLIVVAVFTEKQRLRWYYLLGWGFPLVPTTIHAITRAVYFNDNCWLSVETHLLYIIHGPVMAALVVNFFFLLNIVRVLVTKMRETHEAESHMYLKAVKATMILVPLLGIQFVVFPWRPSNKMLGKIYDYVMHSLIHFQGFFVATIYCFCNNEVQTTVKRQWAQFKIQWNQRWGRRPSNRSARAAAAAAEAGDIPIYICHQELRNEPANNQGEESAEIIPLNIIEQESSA
T1 sequence (O60896 24-148 partner): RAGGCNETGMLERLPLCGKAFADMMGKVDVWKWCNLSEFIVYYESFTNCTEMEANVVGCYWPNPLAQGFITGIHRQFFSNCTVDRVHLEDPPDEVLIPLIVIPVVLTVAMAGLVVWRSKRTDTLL
Summary of the method: (§1)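 1321N1 astrocytoma cells expressing recombinant human calcitonin receptor alone or with RAMP3 (AMY3) stimulated 45 min at room temperature with peptide in IBMX-containing buffer. cAMP quantified by AlphaScreen after 1 h bead incubation; EC50 fitted from at least 7 concentrations.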

[2] = Assessment of chemical stability in 40 mM buffers at 40° C. (RP-HPLC); assay type: physicochemical; details: 1 mg/mL; for % degradation after 14 days at 40° C. pH4 acetate: acetate buffer pH 4, 14 days; for % degradation after 14 days at 40° C. pH6 phosphate: phosphate buffer pH 6, 14 days
Protocol: Samples of each test peptide were dissolved in acetate buffer pH 4 and phosphate buffer pH 6 and 7 (all buffer 40 mM). The final peptide concentration was 1 mg/mL. Samples were placed in glass vials and incubated at 40° C. The samples were analyzed by RP-HPLC on a C8 column with gradient elution using a trifluoroacetic acid/acetonitrile/water eluent system. The area-percentage (area-%) of the main peak was determined by UV spectroscopy at 220 nm at each sampling time point.
The % degradation was calculated by subtracting the […].
The results of the chemical stability assessment after 3 days of incubation time are summarized as % degradation in Table 1 (below).
The results of the chemical stability assessment after 14 days of incubation time are summarized as % degradation in Table 2 (below).

[3] = target: T2, recombinant human calcitonin receptor (hCT-R) (Homo sapiens, UniProt P30988); assay: hCT-R cAMP assay (AlphaScreen) in 1321N1 cells; assay type: cell-based; details: cAMP formation, 45 min stimulation
T2 construct: host or cells: human astrocytoma cell line 1321N1
T2 sequence (P30988 25-474): T1 sequence (P30988 25-474)
Summary of the method: as §1

[4] = Assessment of physical stability: fibril formation by Thioflavin T fluorescence; assay type: physicochemical; design: key: FND = fibrillation not detected; FD = fibrillation detected; details: 1 mg/mL peptide; for Fibrillation (in buffer) pH4 acetate: 50 mM acetate buffer pH 4.0, 96 hours at 40° C.; for Fibrillation (in buffer) pH7 histidine: 50 mM histidine buffer pH 7.0, 96 hours at 40° C.; for Fibrillation (in buffer) pH7 phosphate: 50 mM phosphate buffer pH 7.0, 96 hours at 40° C.
Protocol: Solutions containing (i) 1 mg/mL of test peptide, 40 μM ThT and 50 mM phosphate (Ph) buffer (pH 7.0), (ii) 1 mg/mL of test peptide, 40 μM ThT and 50 mM histidine (His) buffer (pH 7.0), and (iii) 1 mg/mL of test peptide, 40 μM ThT and 50 mM acetate (Ac) buffer (pH 4.0), were loaded in a 96-well black fluorescence plate (clear bottom) in triplicate. Data were collected at fixed intervals of 10 min, each preceded by 300 s of automixing (agitation), over a period of 96 hours at 40° C. Physical stability is determined by measuring the fluorescence intensity over time. A significant increase in intensity is rated as fibrillation detected (FD).

SMILES	EC50 [1]	% degradation after 14 days at 40° C. pH4 acetate [2]	% degradation after 14 days at 40° C. pH6 phosphate [2]	% degradation after 14 days at 40° C. pH7 phosphate ([2]; phosphate buffer pH 7, 14 days)	EC50 [3]	Fibrillation (in buffer) pH4 acetate [4]	Fibrillation (in buffer) pH7 histidine [4]	Fibrillation (in buffer) pH7 phosphate [4]
CC[C@H](C)[C@@H](C(=O)N[C@@H](CC(C)C)C(=O)N[C@@H](CO)C(=O)N[C@@H](CO)C(=O)N[C@H](C(=O)N[C@@H](CCC(=O)O)C(=O)N[C@H](C(=O)NCC(=O)N[C@@H](CO)C(=O)N[C@@H](CC(N)=O)C(=O)N[C@H](C(=O)N1C[C@H](O)C[C@H]1C(N)=O)[C@@H](C)O)C(C)C)[C@@H](C)O)N(C)C(=O)[C@H](C)NC(=O)CN(C)C(=O)[C@H](Cc1ccccc1)NC(=O)[C@H](CO)NC(=O)[C@H](CO)NC(=O)[C@H](CCCNC(=N)N)NC(=O)[C@H](CCC(N)=O)NC(=O)[C@H](CC(C)C)NC(=O)[C@H](Cc1ccccc1)NC(=O)[C@H](Cc1c[nH]cn1)NC(=O)[C@H](C)NC(=O)[C@H](CC(C)C)NC(=O)[C@H](CCCNC(=N)N)NC(=O)[C@H](CCC(=O)O)NC(=O)[C@@H](NC(=O)[C@H](C)NC(=O)[C@@H]1CCCCNC(=O)C[C@H](NC(=O)[C@H](CCCNC(=N)N)NC(=O)CC[C@H](NC(=O)CCCCCCCCCCCCCCCCCCC(=O)O)C(=O)O)C(=O)NCC(=O)N[C@@H]([C@@H](C)O)C(=O)N[C@@H](C)C(=O)N[C@@H](CO)C(=O)N1)[C@@H](C)O [Compound 14, [19CD]-isoGlu-RD()GTASK()ATERLAHFLQRSSF-Gly(Me)-A-Ile(Me)-LSSTEVGSNT-Hyp-NH2] ({C20 diacid-γGlu}-RDGTASKATERLAHFLQRSSF[Sar]A[NMeI]LSSTEVGSNT[Hyp]-NH2; lactam 2-7)	0.108 nM	2.2%	<1%	2.6%	0.386 nM			
CC[C@H](C)[C@@H](C(=O)N[C@@H](CC(C)C)C(=O)N[C@@H](CO)C(=O)N[C@@H](CO)C(=O)N[C@H](C(=O)N[C@@H](CCC(=O)O)C(=O)N[C@H](C(=O)NCC(=O)N[C@@H](CO)C(=O)N[C@@H](CC(N)=O)C(=O)N[C@H](C(=O)N1C[C@H](O)C[C@H]1C(N)=O)[C@@H](C)O)C(C)C)[C@@H](C)O)N(C)C(=O)[C@H](C)NC(=O)CN(C)C(=O)[C@H](Cc1ccccc1)NC(=O)[C@H](CO)NC(=O)[C@H](CO)NC(=O)[C@H](CCCNC(=N)N)NC(=O)[C@H](CCC(N)=O)NC(=O)[C@H](CC(C)C)NC(=O)[C@H](Cc1ccccc1)NC(=O)[C@H](CC(N)=O)NC(=O)[C@H](C)NC(=O)[C@H](CC(C)C)NC(=O)[C@H](CCCNC(=N)N)NC(=O)[C@H](CCC(N)=O)NC(=O)[C@@H](NC(=O)[C@H](C)NC(=O)[C@@H]1CCCCNC(=O)C[C@H](NC(=O)[C@H](CCCCN)NC(=O)CC[C@H](NC(=O)CCCCCCCCCCCCCCCCCCC(=O)O)C(=O)O)C(=O)NCC(=O)N[C@@H]([C@@H](C)O)C(=O)N[C@@H](C)C(=O)N[C@@H]([C@@H](C)O)C(=O)N1)[C@@H](C)O [Compound 43, [19CD]-isoGlu-KD()GTATK()ATQRLANFLQRSSF-Gly(Me)-A-Ile(Me)-LSSTEVGSNT-Hyp-NH2] ({C20 diacid-γGlu}-KDGTATKATQRLANFLQRSSF[Sar]A[NMeI]LSSTEVGSNT[Hyp]-NH2; lactam 2-7)	0.007 nM				0.021 nM	FD	FD	FD
CC[C@H](C)[C@@H](C(=O)N[C@@H](CC(C)C)C(=O)N[C@@H](CO)C(=O)N[C@@H](CO)C(=O)N[C@H](C(=O)N[C@@H](CCC(=O)O)C(=O)N[C@H](C(=O)NCC(=O)N[C@@H](CO)C(=O)N[C@@H](CC(N)=O)C(=O)N[C@H](C(=O)N1C[C@H](O)C[C@H]1C(N)=O)[C@@H](C)O)[C@@H](C)O)[C@@H](C)O)N(C)C(=O)[C@H](C)NC(=O)CN(C)C(=O)[C@H](Cc1ccccc1)NC(=O)[C@H](CO)NC(=O)[C@H](CO)NC(=O)[C@H](CCCNC(=N)N)NC(=O)[C@H](CCC(N)=O)NC(=O)[C@H](CC(C)C)NC(=O)[C@H](Cc1ccccc1)NC(=O)[C@H](CC(N)=O)NC(=O)[C@H](C)NC(=O)[C@H](CC(C)C)NC(=O)[C@H](CCCNC(=N)N)NC(=O)[C@H](CCC(N)=O)NC(=O)[C@@H](NC(=O)[C@H](C)NC(=O)[C@@H]1CCCCNC(=O)C[C@H](NC(=O)[C@H](CCCCN)NC(=O)CC[C@H](NC(=O)CCCCCCCCCCCCCCCCCCC(=O)O)C(=O)O)C(=O)NCC(=O)N[C@@H]([C@@H](C)O)C(=O)N[C@@H](C)C(=O)N[C@@H]([C@@H](C)O)C(=O)N1)[C@@H](C)O [Compound 44, [19CD]-isoGlu-KD()GTATK()ATQRLANFLQRSSF-Gly(Me)-A-Ile(Me)-LSSTETGSNT-Hyp-NH2] ({C20 diacid-γGlu}-KDGTATKATQRLANFLQRSSF[Sar]A[NMeI]LSSTETGSNT[Hyp]-NH2; lactam 2-7)	0.009 nM				0.02 nM	FD	FND	FND
CC[C@H](C)[C@@H](C(=O)N[C@@H](CC(C)C)C(=O)N[C@@H](CO)C(=O)N[C@@H](CO)C(=O)N[C@H](C(=O)N[C@@H](CCC(=O)O)C(=O)N[C@H](C(=O)NCC(=O)N[C@@H](CO)C(=O)N[C@@H](CC(N)=O)C(=O)N[C@H](C(=O)N1C[C@H](O)C[C@H]1C(N)=O)[C@@H](C)O)C(C)C)[C@@H](C)O)N(C)C(=O)[C@H](C)NC(=O)CN(C)C(=O)[C@H](Cc1ccccc1)NC(=O)[C@H](CO)NC(=O)[C@H](CO)NC(=O)[C@H](CCCNC(=N)N)NC(=O)[C@H](CCC(N)=O)NC(=O)[C@H](CC(C)C)NC(=O)[C@H](Cc1ccccc1)NC(=O)[C@H](Cc1c[nH]cn1)NC(=O)[C@H](C)NC(=O)[C@H](CC(C)C)NC(=O)[C@H](CCCNC(=N)N)NC(=O)[C@H](CCC(=O)O)NC(=O)[C@@H](NC(=O)[C@H](C)NC(=O)[C@@H]1CSSC[C@H](NC(=O)[C@H](CCCNC(=N)N)NC(=O)CC[C@H](NC(=O)CCCCCCCCCCCCCCCCCCC(=O)O)C(=O)O)C(=O)NCC(=O)N[C@@H]([C@@H](C)O)C(=O)N[C@@H](C)C(=O)N[C@@H]([C@@H](C)O)C(=O)N1)[C@@H](C)O [Ref. 2, [19CD]-isoGlu-RC()GTATC()ATERLAHFLQRSSF-Sar-A-Ile(Me)-LSSTEVGSNT-Hyp-NH2, reference compound] ({C20 diacid-γGlu}-RCGTATCATERLAHFLQRSSF[Sar]A[NMeI]LSSTEVGSNT[Hyp]-NH2; disulfide 2-7)	0.003 nM	<1%	4.6%		0.019 nM			
